In ChEMBL document CHEMBL5370627, “Novel Indazole Compounds as TEAD Inhibitors for Treating Cancer” (ACS Med Chem Lett, 2023) one finds IC50 data, which are given here for two molecules.

In experiment [1] the target is Transcriptional enhancer factor TEF-1 (Homo sapiens, UniProt P28347). The experiment in a line: Inhibition of His-tagged TEAD1 (unknown origin) preincubated for 0.5 to 4 hrs followed by biotinylated lipid pocket probe addition and measured after 60 min by TR-FRET assay. In general terms: In TR-FRET formats the signal depends on donor and acceptor labels being close together.

The target in experiment [2] is Transcriptional enhancer factor TEF-4 (Homo sapiens, UniProt Q15562). The experiment in a line: Inhibition of His-tagged TEAD2 (unknown origin) preincubated for 0.5 to 4 hrs followed by biotinylated lipid pocket probe addition and measured after 60 min by TR-FRET assay.
For experiment [3], the target named is Transcriptional enhancer factor TEF-5 (Homo sapiens, UniProt Q99594). As to the kind of experiment: Inhibition of His-tagged TEAD3 (unknown origin) preincubated for 0.5 to 4 hrs followed by biotinylated lipid pocket probe addition and measured after 60 min by TR-FRET assay.
Experiment [4] deals with Transcriptional enhancer factor TEF-3 (Homo sapiens, UniProt Q15561). The experiment in a line: Inhibition of His-tagged TEAD4 (unknown origin) preincubated for 0.5 to 4 hrs followed by biotinylated lipid pocket probe addition and measured after 60 min by TR-FRET assay.
Chain of Transcriptional enhancer factor TEF-3 (Q15561 whole entry): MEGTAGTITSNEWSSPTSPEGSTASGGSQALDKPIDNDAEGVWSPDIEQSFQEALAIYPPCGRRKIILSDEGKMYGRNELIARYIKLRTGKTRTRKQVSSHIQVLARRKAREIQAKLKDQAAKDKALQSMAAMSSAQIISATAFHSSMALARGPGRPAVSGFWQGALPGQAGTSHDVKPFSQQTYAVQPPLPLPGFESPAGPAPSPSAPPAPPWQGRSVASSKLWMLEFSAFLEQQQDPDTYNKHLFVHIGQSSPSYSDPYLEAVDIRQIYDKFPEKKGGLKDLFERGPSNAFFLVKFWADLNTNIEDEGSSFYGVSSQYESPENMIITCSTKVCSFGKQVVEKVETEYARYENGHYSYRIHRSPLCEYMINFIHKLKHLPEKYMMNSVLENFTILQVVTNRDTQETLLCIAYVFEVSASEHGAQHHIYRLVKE

Chain of Transcriptional enhancer factor TEF-1 (P28347 whole entry): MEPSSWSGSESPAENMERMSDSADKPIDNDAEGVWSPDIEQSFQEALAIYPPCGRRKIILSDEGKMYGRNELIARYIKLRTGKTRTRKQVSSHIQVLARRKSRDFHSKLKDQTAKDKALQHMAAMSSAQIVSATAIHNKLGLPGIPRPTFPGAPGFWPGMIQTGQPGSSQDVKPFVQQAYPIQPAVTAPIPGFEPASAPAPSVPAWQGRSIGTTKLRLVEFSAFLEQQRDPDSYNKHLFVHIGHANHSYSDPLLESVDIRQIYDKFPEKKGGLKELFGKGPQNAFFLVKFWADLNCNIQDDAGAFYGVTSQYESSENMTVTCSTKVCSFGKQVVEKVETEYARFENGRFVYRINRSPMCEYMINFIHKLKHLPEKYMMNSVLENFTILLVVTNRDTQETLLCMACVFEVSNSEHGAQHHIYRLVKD
Chain of Transcriptional enhancer factor TEF-5 (Q99594 whole entry): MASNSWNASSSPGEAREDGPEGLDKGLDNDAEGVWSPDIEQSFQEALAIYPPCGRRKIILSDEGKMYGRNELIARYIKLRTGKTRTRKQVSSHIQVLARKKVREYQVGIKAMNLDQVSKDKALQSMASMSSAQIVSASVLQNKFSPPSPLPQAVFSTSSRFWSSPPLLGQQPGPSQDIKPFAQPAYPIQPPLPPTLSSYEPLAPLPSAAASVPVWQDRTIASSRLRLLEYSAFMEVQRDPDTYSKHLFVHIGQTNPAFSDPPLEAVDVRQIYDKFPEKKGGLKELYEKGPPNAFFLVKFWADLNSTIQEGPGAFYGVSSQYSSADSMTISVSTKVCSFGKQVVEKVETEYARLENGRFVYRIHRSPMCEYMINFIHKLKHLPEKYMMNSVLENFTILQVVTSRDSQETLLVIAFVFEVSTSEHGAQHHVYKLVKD
Chain of Transcriptional enhancer factor TEF-4 (Q15562 whole entry): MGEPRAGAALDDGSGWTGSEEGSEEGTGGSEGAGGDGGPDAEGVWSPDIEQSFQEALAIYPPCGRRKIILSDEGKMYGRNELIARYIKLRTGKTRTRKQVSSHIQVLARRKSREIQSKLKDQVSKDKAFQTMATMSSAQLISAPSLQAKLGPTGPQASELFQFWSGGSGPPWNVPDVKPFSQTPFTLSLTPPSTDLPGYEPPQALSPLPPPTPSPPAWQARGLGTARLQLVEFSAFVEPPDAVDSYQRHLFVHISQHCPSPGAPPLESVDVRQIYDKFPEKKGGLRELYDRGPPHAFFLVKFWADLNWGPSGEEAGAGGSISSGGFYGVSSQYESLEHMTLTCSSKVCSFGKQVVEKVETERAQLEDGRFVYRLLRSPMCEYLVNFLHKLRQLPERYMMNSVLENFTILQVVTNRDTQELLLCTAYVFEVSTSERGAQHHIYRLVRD

As to `C#Cc1ccnc2c1c(C1CN(C(=O)C=C)C1)nn2-c1ccc(OC(F)(F)F)cc1`, the IC50 in experiment [1] amounted to 4 nM; in experiment [2], 2 nM; in experiment [3], 5 nM; in experiment [4] it was 9 nM.
As for `O=C(/C=C/CO)N1CC(c2nn(-c3ccc(OC(F)(F)F)cc3)c3nccc(Cl)c23)C1`, the IC50 in experiment [1] was 8 nM; in experiment [4] it was 3 nM.

Broadly, the IC50 is the midpoint of a concentration-inhibition curve.
